PubChem BioAssay AID1259407 (Chemical Carcinogenesis Research Information System (CCRIS), 2018)
The source made the active and inactive calls. How the calls were made is not given here.

Test system: CCRIS mutagenicity, Ames/micronucleus/aberration tests
Assay: CCRIS mutagenicity studies
[1] = Test System: AMES SALMONELLA TYPHIMURIUM, Strain/Indicator: TA97, Metabolic Activation: HAMSTER, LIVER, S-9, AROCLOR 1254 (10%), Method: PREINCUBATION
[2] = Test System: AMES SALMONELLA TYPHIMURIUM, Strain/Indicator: TA97, Metabolic Activation: NONE, Method: PREINCUBATION
[3] = Test System: AMES SALMONELLA TYPHIMURIUM, Strain/Indicator: TA97, Metabolic Activation: RAT, LIVER, S-9, AROCLOR 1254 (10%), Method: PREINCUBATION
[4] = Test System: AMES SALMONELLA TYPHIMURIUM, Strain/Indicator: TA98, Metabolic Activation: HAMSTER, LIVER, S-9, AROCLOR 1254 (10%), Method: PREINCUBATION
[5] = Test System: AMES SALMONELLA TYPHIMURIUM, Strain/Indicator: TA98, Metabolic Activation: NONE, Method: PREINCUBATION
[6] = Test System: AMES SALMONELLA TYPHIMURIUM, Strain/Indicator: TA98, Metabolic Activation: RAT, LIVER, S-9, AROCLOR 1254 (10%), Method: PREINCUBATION
[7] = Test System: AMES SALMONELLA TYPHIMURIUM, Strain/Indicator: TA100, Metabolic Activation: HAMSTER, LIVER, S-9, AROCLOR 1254 (10%), Method: PREINCUBATION
[8] = Test System: AMES SALMONELLA TYPHIMURIUM, Strain/Indicator: TA100, Metabolic Activation: NONE, Method: PREINCUBATION
[9] = Test System: AMES SALMONELLA TYPHIMURIUM, Strain/Indicator: TA100, Metabolic Activation: RAT, LIVER, S-9, AROCLOR 1254 (10%), Method: PREINCUBATION
[10] = Test System: AMES SALMONELLA TYPHIMURIUM, Strain/Indicator: TA1535, Metabolic Activation: HAMSTER, LIVER, S-9, AROCLOR 1254 (10%), Method: PREINCUBATION
[11] = Test System: AMES SALMONELLA TYPHIMURIUM, Strain/Indicator: TA1535, Metabolic Activation: NONE, Method: PREINCUBATION
[12] = Test System: AMES SALMONELLA TYPHIMURIUM, Strain/Indicator: TA1535, Metabolic Activation: RAT, LIVER, S-9, AROCLOR 1254 (10%), Method: PREINCUBATION
[13] = Test System: AMES SALMONELLA TYPHIMURIUM, Strain/Indicator: TA100, Metabolic Activation: NONE, Method: STANDARD PLATE

Cc1cccc(C#N)c1
mutagenic call [1]: inactive; negative
mutagenic call (Test System: AMES SALMONELLA TYPHIMURIUM, Strain/Indicator: TA97, Metabolic Activation: HAMSTER, LIVER, S-9, AROCLOR 1254 (30%), Method: PREINCUBATION): inactive; negative
mutagenic call [2]: inactive; negative
mutagenic call [3]: inactive; negative
mutagenic call (Test System: AMES SALMONELLA TYPHIMURIUM, Strain/Indicator: TA97, Metabolic Activation: RAT, LIVER, S-9, AROCLOR 1254 (30%), Method: PREINCUBATION): inactive; negative
mutagenic call [4]: inactive; negative
mutagenic call (Test System: AMES SALMONELLA TYPHIMURIUM, Strain/Indicator: TA98, Metabolic Activation: HAMSTER, LIVER, S-9, AROCLOR 1254 (30%), Method: PREINCUBATION): inactive; negative
mutagenic call [5]: inactive; negative
mutagenic call [6]: inactive; negative
mutagenic call (Test System: AMES SALMONELLA TYPHIMURIUM, Strain/Indicator: TA98, Metabolic Activation: RAT, LIVER, S-9, AROCLOR 1254 (30%), Method: PREINCUBATION): inactive; negative
mutagenic call [7]: inactive; negative
mutagenic call (Test System: AMES SALMONELLA TYPHIMURIUM, Strain/Indicator: TA100, Metabolic Activation: HAMSTER, LIVER, S-9, AROCLOR 1254 (30%), Method: PREINCUBATION): inactive; negative
mutagenic call [8]: inactive; negative
mutagenic call [9]: inactive; negative
mutagenic call (Test System: AMES SALMONELLA TYPHIMURIUM, Strain/Indicator: TA100, Metabolic Activation: RAT, LIVER, S-9, AROCLOR 1254 (30%), Method: PREINCUBATION): inactive; negative
mutagenic call [10]: inactive; negative
mutagenic call (Test System: AMES SALMONELLA TYPHIMURIUM, Strain/Indicator: TA1535, Metabolic Activation: HAMSTER, LIVER, S-9, AROCLOR 1254 (30%), Method: PREINCUBATION): inactive; negative
mutagenic call [11]: inactive; negative
mutagenic call [12]: inactive; negative
mutagenic call (Test System: AMES SALMONELLA TYPHIMURIUM, Strain/Indicator: TA1535, Metabolic Activation: RAT, LIVER, S-9, AROCLOR 1254 (30%), Method: PREINCUBATION): inactive; negative

ONc1ccc(Oc2ccccc2)cc1
mutagenic call (Test System: AMES SALMONELLA TYPHIMURIUM, Strain/Indicator: TA98, Metabolic Activation: NONE, Method: STANDARD PLATE): active; positive
mutagenic call [13]: active; positive

NN(Cc1ccccc1)Cc1ccccc1
mutagenic call [13]: inactive; negative
mutagenic call (Test System: AMES SALMONELLA TYPHIMURIUM, Strain/Indicator: TA100, Metabolic Activation: RAT, LIVER, S-9, AROCLOR 1254, Method: STANDARD PLATE): inactive; negative
mutagenic call (Test System: AMES SALMONELLA TYPHIMURIUM, Strain/Indicator: TA102, Metabolic Activation: NONE, Method: STANDARD PLATE): inactive; negative
mutagenic call (Test System: AMES SALMONELLA TYPHIMURIUM, Strain/Indicator: TA102, Metabolic Activation: RAT, LIVER, S-9, AROCLOR 1254, Method: STANDARD PLATE): inactive; negative

Cc1c2ccccc2c(COS(=O)(=O)O)c2ccc3ccccc3c12
mutagenic call [5]: active; positive

CN=c1ccc2nc3ccc(N)cc3sc-2c1
mutagenic call (Test System: Ames Salmonella typhimurium, Strain/Indicator: TA98, Metabolic Activation: None, Method: Preincubation): active; positive
mutagenic call (Test System: Ames Salmonella typhimurium, Strain/Indicator: TA98, Metabolic Activation: Rat, Liver, S-9, Aroclor 1254 (10%), Method: Preincubation): active; positive
mutagenic call (Test System: Ames Salmonella typhimurium, Strain/Indicator: TA100, Metabolic Activation: None, Method: Preincubation): active; positive
mutagenic call (Test System: Ames Salmonella typhimurium, Strain/Indicator: TA100, Metabolic Activation: Rat, Liver, S-9, Aroclor 1254 (10%), Method: Preincubation): active; positive
mutagenic call (Test System: E. coli, Strain/Indicator: WPM uvrA/pKM101, Metabolic Activation: None, Method: Preincubation): active; positive
mutagenic call (Test System: E. coli, Strain/Indicator: WPM uvrA/pKM101, Metabolic Activation: Rat, Liver, S-9, Aroclor 1254 (10%), Method: Preincubation): active; positive

NC1CCCCC1
mutagenic call (Test System: CHINESE HAMSTER OVARY, Strain/Indicator: CHO-K1-BH4 (HGPRT), Metabolic Activation: NONE, Method: STANDARD PLATE): inactive; negative
mutagenic call (Test System: CHINESE HAMSTER OVARY, Strain/Indicator: CHO-K1-BH4 (HGPRT), Metabolic Activation: RAT, LIVER, S-9, Method: STANDARD PLATE): inactive; negative
mutagenic call (Test System: UDS RODENT HEPATOCYTES, Strain/Indicator: THY INCORP (NON-S-PHASE), Metabolic Activation: NONE, Method: AUTORADIOGRAPHY): inactive; negative

CC(Cl)(Cl)[N+](=O)[O-]
mutagenic call [1]: active; positive
mutagenic call [2]: active; positive
mutagenic call [3]: active; positive
mutagenic call [4]: inactive; negative
mutagenic call [5]: inactive; negative
mutagenic call [6]: inactive; negative
mutagenic call [7]: active; positive
mutagenic call [8]: inactive; negative
mutagenic call [9]: active; positive
mutagenic call [10]: inactive; negative
mutagenic call [11]: inactive; negative
mutagenic call [12]: inactive; negative

O=C(N[C@H](CO)[C@H](O)c1ccc([N+](=O)[O-])cc1)C(Cl)Cl
mutagenic call (Test System: CHINESE HAMSTER V-79, Strain/Indicator: V-79/6-THIOGUANINE, Metabolic Activation: NONE): active; positive
mutagenic call (Test System: CHINESE HAMSTER V-79, Strain/Indicator: V-79/6-THIOGUANINE, Metabolic Activation: RAT HEPATOCYTES): inactive; negative

CC(C)CCC(C)Nc1ccc(NC(C)CCC(C)C)cc1 (stereo unspecified)
mutagenic call [4]: inactive; negative
mutagenic call [5]: inactive; negative
mutagenic call [6]: inactive; negative
mutagenic call [7]: inactive; negative
mutagenic call [8]: inactive; negative
mutagenic call [9]: inactive; negative
mutagenic call [10]: inactive; negative
mutagenic call [11]: inactive; negative
mutagenic call [12]: inactive; negative
mutagenic call (Test System: AMES SALMONELLA TYPHIMURIUM, Strain/Indicator: TA1537, Metabolic Activation: HAMSTER, LIVER, S-9, AROCLOR 1254 (10%), Method: PREINCUBATION): inactive; negative
mutagenic call (Test System: AMES SALMONELLA TYPHIMURIUM, Strain/Indicator: TA1537, Metabolic Activation: NONE, Method: PREINCUBATION): inactive; negative
mutagenic call (Test System: AMES SALMONELLA TYPHIMURIUM, Strain/Indicator: TA1537, Metabolic Activation: RAT, LIVER, S-9, AROCLOR 1254 (10%), Method: PREINCUBATION): inactive; negative

C#CCc1ccc(COC(=O)C2C(C=C(C)C)C2(C)C)o1 (stereo unspecified)
mutagenic call (Test System: AMES SALMONELLA TYPHIMURIUM, Strain/Indicator: TA98): inactive; negative
mutagenic call (Test System: AMES SALMONELLA TYPHIMURIUM, Strain/Indicator: TA98, Metabolic Activation: NONE): inactive; negative
mutagenic call (Test System: AMES SALMONELLA TYPHIMURIUM, Strain/Indicator: TA100): active; positive
mutagenic call (Test System: AMES SALMONELLA TYPHIMURIUM, Strain/Indicator: TA100, Metabolic Activation: NONE): inactive; negative
